From the supplement of paper PMC9663587

Columns and labels:
THZ1 [1] = compound: T1, CN(C)C/C=C/C(=O)Nc1ccc(C(=O)Nc2cccc(Nc3ncc(Cl)c(-c4c[nH]c5ccccc45)n3)c2)cc1 [THZ1]; test: increase in dead-cell fraction, 72 h; higher = more death;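 note: breast cancer cell lines in 384-well plates, stained with Hoechst plus LIVE/DEAD far red dye and imaged, cells above an LDR intensity threshold counted dead, Hoechst-negative corpses included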
Neratinib/HKI272 = compound: CCOc1cc2ncc(C#N)c(Nc3ccc(OCc4ccccn4)c(Cl)c3)c2cc1NC(=O)/C=C/CN(C)C [Neratinib/HKI272]; test: as above
[2] = compound: CC(=O)c1c(C)c2cnc(Nc3ccc(N4CCNCC4)cn3)nc2n(C2CCCC2)c1=O; test: as above
LEE011/Ribociclib = compound: CN(C)C(=O)c1cc2cnc(Nc3ccc(N4CCNCC4)cn3)nc2n1C1CCCC1 [LEE011/Ribociclib]; test: as above
Flavopiridol [3] = compound: T2, CN1CC[C@H](c2c(O)cc(O)c3c(=O)cc(-c4ccccc4Cl)oc23)[C@H](O)C1 [Flavopiridol]; test: as above
BSJ-03-123 = compound: CC(=O)c1c(C)c2cnc(Nc3ccc(N4CCN(CCOCCOCCOCCNC(=O)COc5cccc6c5C(=O)N(C5CCC(=O)NC5=O)C6=O)CC4)cn3)nc2n(C2CCCC2)c1=O [BSJ-03-123]; test: as above
[4] = compound: CCc1cnn2c(NCc3ccc[n+]([O-])c3)cc(N3CCCC[C@H]3CCO)nc12; test: as above
[5] = compound: CCN1CCN(Cc2ccc(Nc3ncc(F)c(-c4cc(F)c5nc(C)n(C(C)C)c5c4)n3)nc2)CC1; test: as above
THZ1 [6] = compound: T1, THZ1; test: GR value, 72 h; higher = faster growth (1 = untreated, <0 = killing);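 note: breast cancer and non-malignant breast epithelial lines, nine half-log doses, viable cells counted by Hoechst and LIVE/DEAD dye imaging versus time-zero plates and DMSO controls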
THZ531 = compound: CN(C)C/C=C/C(=O)Nc1ccc(C(=O)N2CCC[C@@H](Nc3ncc(Cl)c(-c4c[nH]c5ccccc45)n3)C2)cc1 [THZ531]; test: as above
[7] = compound: CC(=O)c1c(C)c2cnc(Nc3ccc(N4CCNCC4)cn3)nc2n(C2CCCC2)c1=O; test: as above
Flavopiridol [8] = compound: T2, Flavopiridol; test: as above

For EVSAT, the “increase in dead-cell fraction” value (THZ1 [1]; 0.0001 µM) was -0.0011, the “increase in dead-cell fraction” value (THZ1 [1]; 0.0003162 µM) was 0.0011 and the “increase in dead-cell fraction” value (THZ1 [1]; 0.001 µM) was 0.0012. For the same cell line, the “increase in dead-cell fraction” value (THZ1 [1]; 0.003162 µM) was 0.0031, the “increase in dead-cell fraction” value (THZ1 [1]; 0.01 µM) was 0.0078 and the “increase in dead-cell fraction” value (THZ1 [1]; 0.03162 µM) was 0.0292. The “increase in dead-cell fraction” value (THZ1 [1]; 0.1 µM) was 0.181, the “increase in dead-cell fraction” value (THZ1 [1]; 0.3162 µM) was 0.641 and the “increase in dead-cell fraction” value (Neratinib/HKI272; 0.0003162 µM) was -0.0012. The “increase in dead-cell fraction” value (Neratinib/HKI272; 0.001 µM) was -0.002, the “increase in dead-cell fraction” value (Neratinib/HKI272; 0.003162 µM) was -0.0011 and the “increase in dead-cell fraction” value (Neratinib/HKI272; 0.01 µM) was -0.0031. For the same cell line, the “increase in dead-cell fraction” value (Neratinib/HKI272; 0.03162 µM) was -0.0026, the “increase in dead-cell fraction” value (Neratinib/HKI272; 0.1 µM) was -0.0027 and the “increase in dead-cell fraction” value (Neratinib/HKI272; 0.3162 µM) was -0.002. For the same cell line, the “increase in dead-cell fraction” value (Neratinib/HKI272; 1 µM) was 0.0019, the “increase in dead-cell fraction” value (Neratinib/HKI272; 3.162 µM) was 0.0083 and the “increase in dead-cell fraction” value ([2]; 0.0003162 µM) was 0.0003. The “increase in dead-cell fraction” value ([2]; 0.001 µM) was -0.0039, the “increase in dead-cell fraction” value ([2]; 0.003162 µM) was -0.002 and the “increase in dead-cell fraction” value ([2]; 0.01 µM) was -0.0026. The “increase in dead-cell fraction” value ([2]; 0.03162 µM) was 0.0033, the “increase in dead-cell fraction” value ([2]; 0.1 µM) was 0.0048 and the “increase in dead-cell fraction” value ([2]; 0.3162 µM) was 0.0108. For the same cell line, the “increase in dead-cell fraction” value ([2]; 1 µM) was 0.0176, the “increase in dead-cell fraction” value ([2]; 3.162 µM) was 0.0205 and the “increase in dead-cell fraction” value (LEE011/Ribociclib; 0.001 µM) was 0.0012. For the same cell line, the “increase in dead-cell fraction” value (LEE011/Ribociclib; 0.003162 µM) was 0.0024, the “increase in dead-cell fraction” value (LEE011/Ribociclib; 0.01 µM) was 0.0001 and the “increase in dead-cell fraction” value (LEE011/Ribociclib; 0.03162 µM) was 0.0046. For the same cell line, the “increase in dead-cell fraction” value (LEE011/Ribociclib; 0.1 µM) was 0.0067, the “increase in dead-cell fraction” value (LEE011/Ribociclib; 0.3162 µM) was 0.0048 and the “increase in dead-cell fraction” value (LEE011/Ribociclib; 1 µM) was 0.0025. For the same cell line, the “increase in dead-cell fraction” value (LEE011/Ribociclib; 3.162 µM) was 0.0016, the “increase in dead-cell fraction” value (LEE011/Ribociclib; 10 µM) was 0.0146 and the “increase in dead-cell fraction” value (Flavopiridol [3]; 0.0001 µM) was 0. The “increase in dead-cell fraction” value (Flavopiridol [3]; 0.0003162 µM) was -0.0027, the “increase in dead-cell fraction” value (Flavopiridol [3]; 0.001 µM) was -0.0029 and the “increase in dead-cell fraction” value (Flavopiridol [3]; 0.003162 µM) was 0.0039. For the same cell line, the “increase in dead-cell fraction” value (Flavopiridol [3]; 0.01 µM) was 0.0011, the “increase in dead-cell fraction” value (Flavopiridol [3]; 0.03162 µM) was 0.0016 and the “increase in dead-cell fraction” value (Flavopiridol [3]; 0.1 µM) was 0.0006. For the same cell line, the “increase in dead-cell fraction” value (Flavopiridol [3]; 0.3162 µM) was 0.0111, the “increase in dead-cell fraction” value (Flavopiridol [3]; 1 µM) was 0.85 and the “increase in dead-cell fraction” value (BSJ-03-123; 0.001 µM) was -0.0001. For the same cell line, the “increase in dead-cell fraction” value (BSJ-03-123; 0.003162 µM) was 0.0011, the “increase in dead-cell fraction” value (BSJ-03-123; 0.01 µM) was 0.0093 and the “increase in dead-cell fraction” value (BSJ-03-123; 0.03162 µM) was 0.0004. For the same cell line, the “increase in dead-cell fraction” value (BSJ-03-123; 0.1 µM) was 0.0074, the “increase in dead-cell fraction” value (BSJ-03-123; 0.3162 µM) was -0.0005 and the “increase in dead-cell fraction” value (BSJ-03-123; 1 µM) was 0.0163. For the same cell line, the “increase in dead-cell fraction” value (BSJ-03-123; 3.162 µM) was 0.0309, the “increase in dead-cell fraction” value (BSJ-03-123; 10 µM) was 0.221 and the “increase in dead-cell fraction” value ([4]; 0.0001 µM) was -0.0004. For the same cell line, the “increase in dead-cell fraction” value ([4]; 0.0003162 µM) was 0.0006, the “increase in dead-cell fraction” value ([4]; 0.001 µM) was 0.0006 and the “increase in dead-cell fraction” value ([4]; 0.003162 µM) was -0.003. The “increase in dead-cell fraction” value ([4]; 0.01 µM) was -0.0037, the “increase in dead-cell fraction” value ([4]; 0.03162 µM) was 0.107 and the “increase in dead-cell fraction” value ([5]; 0.001 µM) was -0.0003. The “increase in dead-cell fraction” value ([5]; 0.003162 µM) was -0.0008, the “increase in dead-cell fraction” value ([5]; 0.01 µM) was -0.0013 and the “increase in dead-cell fraction” value ([5]; 0.03162 µM) was 0.0044. For the same cell line, the “increase in dead-cell fraction” value ([5]; 0.1 µM) was 0.0048, the “increase in dead-cell fraction” value ([5]; 0.3162 µM) was 0.0122 and the “increase in dead-cell fraction” value ([5]; 1 µM) was 0.0226. The “increase in dead-cell fraction” value ([5]; 3.162 µM) was 0.0299, the “increase in dead-cell fraction” value ([5]; 10 µM) was 0.798 and the GR value (THZ1 [6]; 0.0001 µM) was 1.02 GR. The GR value (THZ1 [6]; 0.0003162 µM) was 0.993 GR, the GR value (THZ1 [6]; 0.001 µM) was 0.991 GR and the GR value (THZ1 [6]; 0.003162 µM) was 0.946 GR. The GR value (THZ1 [6]; 0.01 µM) was 0.975 GR, the GR value (THZ1 [6]; 0.03162 µM) was 0.705 GR and the GR value (THZ1 [6]; 0.1 µM) was 0.232 GR. The GR value (THZ1 [6]; 0.3162 µM) was -0.363 GR, the GR value (THZ531; 0.0001 µM) was 0.995 GR and the GR value (THZ531; 0.0003162 µM) was 0.952 GR. It also gave a GR value (THZ531; 0.001 µM) of 1 GR, a GR value (THZ531; 0.003162 µM) of 1.01 GR and a GR value (THZ531; 0.01 µM) of 1.07 GR. The GR value (THZ531; 0.03162 µM) was 1.06 GR, the GR value (THZ531; 0.1 µM) was 0.745 GR and the GR value (THZ531; 0.3162 µM) was 0.0467 GR. For the same cell line, the GR value ([7]; 0.0003162 µM) was 1.02 GR, the GR value ([7]; 0.001 µM) was 1 GR and the GR value ([7]; 0.003162 µM) was 0.994 GR. It also gave a GR value ([7]; 0.01 µM) of 0.974 GR, a GR value ([7]; 0.03162 µM) of 0.863 GR and a GR value ([7]; 0.1 µM) of 0.792 GR. The GR value ([7]; 0.3162 µM) was 0.752 GR, the GR value ([7]; 1 µM) was 0.671 GR and the GR value ([7]; 3.162 µM) was 0.637 GR. It also gave a GR value (Flavopiridol [8]; 0.0001 µM) of 1.01 GR, a GR value (Flavopiridol [8]; 0.0003162 µM) of 1.06 GR and a GR value (Flavopiridol [8]; 0.001 µM) of 1.02 GR. For the same cell line, the GR value (Flavopiridol [8]; 0.003162 µM) was 0.984 GR, the GR value (Flavopiridol [8]; 0.01 µM) was 0.925 GR and the GR value (Flavopiridol [8]; 0.03162 µM) was 0.97 GR. The GR value (Flavopiridol [8]; 0.1 µM) was 0.917 GR, the GR value (Flavopiridol [8]; 0.3162 µM) was 0.619 GR and the GR value (Flavopiridol [8]; 1 µM) was -0.514 GR.
